Reference: ChEMBL document CHEMBL1151493, “Cholestane glycosides with potent cytostatic activities on various tumor cells from Ornithogalum saundersiae bulbs” (Bioorg Med Chem Lett, 1997)
Values after ≈ are worked out from the molar mass of the structure shown.

Tests used:
HL-60 [1] = assay: Tested for the cytostatic activity as inhibitory concentration against leukemia HL-60 cells; assay type: functional, cell-based; settings: Homo sapiens
A549 = assay: Tested for the cytostatic activity as inhibitory concentration against A-549 human pulmonary adenocarcinoma cells; assay type: functional, cell-based
CCD 19Lu = assay: Tested for the cytostatic activity as inhibitory concentration against CCD-19Lu (human normal pulmonary) cells; assay type: functional, cell-based
CCRF-CEM = assay: Tested for the cytostatic activity as inhibitory concentration against CCRF-CEM human leukemia cells; assay type: functional, cell-based
FM3A = assay: Tested for the cytostatic activity as inhibitory concentration against FM3A mouse mastrocarcinoma cells; assay type: functional, cell-based
HL-60 [2] = assay: Tested in vitro for cytostatic activity against 60-cell line; assay type: functional, Homo sapiens
Homo sapiens = organism: Homo sapiens; assay: Tested for hemolytic activity in human erythrocytes at 100 ug/ml; Not hemolytic; assay type: functional
Lu-65 = assay: Tested for the cytostatic activity as inhibitory concentration against Lu-65 human pulmonary large cell carcinoma; assay type: functional, cell-based
Lu-99 cell line = assay: Tested for the cytostatic activity as inhibitory concentration against Lu-99 human pulmonary large cell carcinoma; assay type: functional, cell-based
Mus musculus = assay: Increased life span against mouse P388 leukemic cells after 0.01 mg/kg administration in mice; assay type: functional
P388CPT = assay: Tested for the cytostatic activity as inhibitory concentration against camptothecin resistant P-388 mouse leukemia cells; assay type: functional, cell-based
P388 = assay: Tested for the cytostatic activity as inhibitory concentration against P-388 mouse leukemia cells; assay type: functional, cell-based
P388/ADM = assay: Tested for the cytostatic activity as inhibitory concentration against adriamycin resistant P-388 mouse leukemia cells; assay type: functional, cell-based
RERF-LC-AI = assay: Tested for the cytostatic activity as inhibitory concentration against RERF-LC-AI human pulmonary squamous cell carcinoma; assay type: functional, cell-based
NCI-60 panel = assay: Tested in vitro for cytostatic activity against 60-cell line; settings: Homo sapiens
[3] = Homo sapiens, CCD 19Lu, read-out: IC50
[4] = Homo sapiens, CCRF-CEM, read-out: IC50
[5] = Homo sapiens, Lu-99, read-out: IC50
[6] = Mus musculus, P388, read-out: IC50

IC50 (HL-60 [1]) | Compound | IC50 (CCD 19Lu; [3]) | IC50 (CCRF-CEM; [4]) | IC50 (Lu-99 cell line; [5]) | IC50 (P388; [6]) | further results
0.24 nM | COc1ccc(C(=O)O[C@@H]2[C@H](O[C@H]3[C@@H](OC(C)=O)[C@H](O[C@H]4C[C@H]5[C@@H]6CC=C7C[C@@H](O[C@@H]8O[C@@H](CO)[C@@H](O)[C@H](O)[C@@H]8O)CC[C@]7(C)[C@H]6CC[C@]5(C)[C@@]4(O)[C@H](C)C(=O)CCC(C)C)OC[C@@H]3O)OC[C@@H](O)[C@@H]2O)cc1 |  |  |  |  | 
0.12 nM | CC(=O)O[C@H]1[C@H](O[C@H]2C[C@H]3[C@@H]4CC=C5C[C@@H](O[C@@H]6O[C@@H](CO)[C@@H](O)[C@H](O)[C@@H]6O)CC[C@]5(C)[C@H]4CC[C@]3(C)[C@@]2(O)[C@H](C)C(=O)CCC(C)C)OC[C@H](O)[C@H]1O[C@@H]1OC[C@@H](O)[C@H](O)[C@@H]1OC(=O)/C=C/c1ccccc1 |  |  |  |  | 
 | CC[C@@]1(O)C(=O)OCc2c1cc1n(c2=O)Cc2cc3ccccc3nc2-1 [CAMPTOTHECIN] | 2000 ng/mL (≈ 5740 nM) | 5 ng/mL (≈ 14.4 nM) | 1 ng/mL (≈ 2.87 nM) | 5 ng/mL (≈ 14.4 nM) | 
0.2 nM | COc1ccc(C(=O)O[C@@H]2[C@H](O[C@H]3[C@@H](OC(C)=O)[C@H](O[C@H]4C[C@H]5[C@@H]6CC=C7C[C@@H](O)CC[C@]7(C)[C@H]6CC[C@]5(C)[C@]4(O)[C@H](C)C(=O)CCC(C)C)OC[C@@H]3O)OC[C@@H](O)[C@@H]2O)cc1OC |  |  |  |  | 
 | CC(=O)O[C@H]1C(=O)[C@@]2(C)[C@H]([C@H](OC(=O)c3ccccc3)[C@]3(O)C[C@H](OC(=O)[C@H](O)[C@@H](NC(=O)c4ccccc4)c4ccccc4)C(C)=C1C3(C)C)[C@]1(OC(C)=O)CO[C@@H]1C[C@@H]2O [PACLITAXEL] | 2000 ng/mL (≈ 2340 nM) | 1 ng/mL (≈ 1.17 nM) | 2 ng/mL (≈ 2.34 nM) | 10 ng/mL (≈ 11.7 nM) | 
 | CISPLATIN |  |  |  |  | IC50 (CCD 19Lu; ccd 19lu): 10000 ng/mL; IC50 (CCRF-CEM; ccrf-cem): 5 ng/mL; IC50 (Lu-99 cell line; lu-99): 1 ng/mL; IC50 (P388; p388): 50 ng/mL
 | CO[C@@]12[C@H](COC(N)=O)C3=C(C(=O)C(C)=C(N)C3=O)N1C[C@@H]1N[C@@H]12 [MITOMYCIN] | 2000 ng/mL (≈ 5980 nM) | 20 ng/mL (≈ 59.8 nM) | 10 ng/mL (≈ 29.9 nM) | 10 ng/mL (≈ 29.9 nM) | 
 | COc1cccc2c1C(=O)c1c(O)c3c(c(O)c1C2=O)C[C@@](O)(C(=O)CO)C[C@@H]3O[C@H]1C[C@H](N)[C@H](O)[C@H](C)O1 [DOXORUBICIN] | 2000 ng/mL (≈ 3680 nM) | 10 ng/mL (≈ 18.4 nM) | 2 ng/mL (≈ 3.68 nM) | 3 ng/mL (≈ 5.52 nM) | 
0.29 nM | CC(=O)O[C@H]1[C@H](O[C@H]2C[C@H]3[C@@H]4CC=C5C[C@@H](O)CC[C@]5(C)[C@H]4CC[C@]3(C)[C@@]2(O)[C@H](C)C(=O)CCC(C)C)OC[C@H](O)[C@H]1O[C@@H]1OC[C@@H](O)[C@H](O)[C@@H]1OC(=O)/C=C/c1ccccc1 |  |  |  |  | 

Compound | IC50 (HL-60 [1]) | IC50 (CCD 19Lu; [3]) | IC50 (CCRF-CEM; [4]) | IC50 (Lu-99 cell line; [5]) | IC50 (P388; [6]) | further results
COc1ccc(C(=O)O[C@@H]2[C@H](O[C@H]3[C@@H](OC(C)=O)[C@H](O[C@H]4C[C@H]5[C@@H]6CC=C7C[C@@H](O)CC[C@]7(C)[C@H]6CC[C@]5(C)[C@@]4(O)[C@H](C)C(=O)CCC(C)C)OC[C@@H]3O)OC[C@@H](O)[C@@H]2O)cc1 | 0.25 nM | 1500 ng/mL (≈ 1720 nM) | 0.16 ng/mL (≈ 0.183 nM) | 0.2 ng/mL (≈ 0.229 nM) | 0.13 ng/mL (≈ 0.149 nM) | IC50 (A549): 0.68 ng/mL (≈ 0.779 nM); IC50 (FM3A): 0.16 ng/mL (≈ 0.183 nM); IC100 (HL-60 [2]): 58 nM; Activity (Homo sapiens): Not hemolytic; IC50 (Lu-65): 0.2 ng/mL (≈ 0.229 nM); ILS at 0.01 mg/kg (Mus musculus): 59%; IC50 (P388CPT): 0.1 ng/mL (≈ 0.115 nM); IC50 (P388/ADM): 0.77 ng/mL (≈ 0.882 nM); IC50 (RERF-LC-AI): 0.26 ng/mL (≈ 0.298 nM); IC50 (NCI-60 panel): 0.78 nM
CC(C)CCC(=O)[C@@H](C)[C@@]1(O)[C@@H](O[C@@H]2OC[C@H](O)[C@@H](O[C@@H]3OC[C@@H](O)[C@H](O)[C@@H]3O)[C@H]2O)C[C@H]2[C@@H]3CC=C4C[C@@H](O)CC[C@]4(C)[C@H]3CC[C@@]21C | 190 nM |  |  |  |  | 
